From US10385014B2, “Acyloxyalkyl carbamate prodrugs, methods of synthesis and use” (ARBOR PHARMACEUTICALS, LLC, priority 2003, dated 2019)

Legend:
[1] = Chemical stability of prodrugs in aqueous buffers; type: physicochemical
Protocol: (§1) The stabilities of prodrugs were evaluated in one or more in vitro systems using a variety of tissue preparations following methods known in the art. The chemical stability of prodrugs in aqueous buffers at pH's of 2.0, 7.4 and 8.0 were also measured. […] Each preparation was incubated with test compound at 37° C. for one hour. Aliquots (50 μL) were removed at 0, 30, and 60 min and quenched with 0.1% trifluoroacetic acid in acetonitrile. Samples were then centrifuged and analyzed by LC/MS/MS (see Example 86 below for method details).

[2] = Prodrug stability in rat plasma in vitro; type: in vitro ADME; details: 2.0 μM, 37° C.
Protocol: as §1

[3] = Prodrug stability in human plasma in vitro; type: in vitro ADME; details: 2.0 μM, 37° C.
Protocol: as §1

[4] = Prodrug stability in rat liver S9; type: in vitro ADME; details: Rat Liver S9 (0.5 mg/mL), 2.0 μM, NADPH, 37° C.
Protocol: as §1

[5] = Prodrug stability in human liver S9; type: in vitro ADME; details: Human Liver S9 (0.5 mg/mL), 2.0 μM, NADPH, 37° C.
Protocol: as §1

[6] = Caco-2 homogenate S9 stability; type: in vitro ADME; details: Caco-2 S9 (0.5 mg protein per mL), 5 μM, 37° C.
Protocol: Caco-2 Homogenate S9 Stability: Caco-2 cells were grown for 21 days prior to harvesting. Culture medium was removed and cell monolayers were rinsed and scraped off into ice-cold 10 mM sodium phosphate/0.15 M potassium chloride, pH 7.4. Cells were lysed by sonication at 4° C. using a probe sonicator. Lysed cells were then transferred into 1.5 mL centrifuge vials and centrifuged at 9000 g for 20 min at 4° C. The resulting supernatant (Caco-2 cell homogenate S9 fraction) was aliquoted into 0.5 mL vials and stored at −80° C. until used.
For stability studies, prodrug (5 μM) was incubated in Caco-2 homogenate S9 fraction (0.5 mg protein per mL) for 60 min at 37° C. Concentrations of intact prodrug and released baclofen were determined at zero time and 60 minutes using LC/MS/MS.

[7] = system: pancreatin; test: Pancreatin stability; type: in vitro ADME, porcine; details: 1% (w/v) pancreatin, 5 μM, pH 7.5, 37° C.
Protocol: Pancreatin Stability: Stability studies were conducted by incubating prodrug (5 μM) with 1% (w/v) pancreatin (Sigma, P-1625, from porcine pancreas) in 0.025 M Tris buffer containing 0.5 M NaCl (pH 7.5) at 37° C. for 60 min. The reaction was stopped by addition of 2 volumes of methanol. After centrifugation at 14,000 rpm for […], the supernatant was removed and analyzed by LC/MS/MS.

[8] = system: Caco-2 cells; test: Caco-2 cellular permeability of prodrugs; type: in vitro ADME; details: Caco-2 monolayer, ratio of Papp values
Protocol: For example, cellular permeability may be evaluated by examining the flux of a prodrug across a cultured polarized cell monolayer (e.g., Caco-2 cells). Caco-2 cells obtained from continuous culture (passage less than 28) were seeded at high density onto Transwell polycarbonate filters. Cells were maintained with DMEM/10% fetal calf serum+0.1 mM nonessential amino acids+2 mM L-Gln, 5% CO2/95% O2, 37° C. until the day of the experiment. Permeability studies were conducted at pH 6.5 apically (in 50 mM MES buffer containing 1 mM CaCl2, 1 mM MgCl2, 150 mM NaCl, 3 mM KCl, 1 mM NaH2PO4, 5 mM glucose) and pH 7.4 basolaterally (in Hanks' balanced salt solution containing 10 mM HEPES) in the presence of efflux pump inhibitors (250 μM MK-571, 250 μM Verapamil, 1 mM Ofloxacin). Inserts were placed in 12 or 24 well plates containing buffer and incubated for 30 min at 37 C.°. Prodrug (200 μM) was added to the apical or basolateral compartment (donor) and concentrations of prodrug and/or released parent drug in the opposite compartment (receiver) were determined at intervals over 1 hour using LC/MS/MS. Values of apparent permeability (Papp) were calculated using the equation: Papp=Vr(dC/dt)//(ACo)
Here Vr is the volume of the receiver compartment in mL; dC/dt is the total flux of prodrug and parent drug (μM/s), determined from the slope of the plot of concentration in the receiver compartment versus time; Co is the initial concentration of prodrug in μM; A is the surface area of the membrane in cm^2.

Structure (SMILES)	% of Baclofen Released after 60 min ([1]; aqueous buffer pH 2.0, 37° C.)	% of Baclofen Released after 60 min ([1]; aqueous buffer pH 7.4, 37° C.)	% of Baclofen Released after 60 min ([1]; aqueous buffer pH 8.0, 37° C.)	% of Prodrug Remaining after 60 min [2]	% of Baclofen Released after 60 min [3]	% of Prodrug Remaining after 60 min [4]	% of Prodrug Remaining after 60 min [5]	% of Prodrug Remaining after 60 min [6]	% of Prodrug Remaining after 60 min [7]	% of Prodrug Remaining after 60 min ([1]; aqueous buffer pH 8.0, 37° C.)	% of Prodrug Remaining after 60 min ([1]; aqueous buffer pH 7.4, 37° C.)	% of Baclofen Released after 60 min [4]	% of Baclofen Released after 60 min [5]	% of Baclofen Released after 60 min [6]	% of Baclofen Released after 60 min [7]	% of Prodrug Remaining after 60 min ([1]; aqueous buffer pH 2.0, 37° C.)	% of Baclofen Released after 60 min [2]	% of Prodrug Remaining after 60 min [3]	Ratio A-B/B-A [8]
O=C([O-])C[C@@H](CNC(=O)OCOC(=O)CCc1ccccc1)c1ccc(Cl)cc1.[Na+] [(62), Sodium 4-[(3-Phenylpropionovloxymethoxy)carbonylamino]-(3R)-(4-chlorophenyl)-butanoate]	0%	2%	8%	5%	2%	2%	0%	1%	1%										
CC(C)C(=O)OC(OC(=O)NC[C@H](CC(=O)[O-])c1ccc(Cl)cc1)C(C)C.[Na+] (stereo partly drawn) [(25), Sodium 4-[(1-Isobutanoyloxyisobutoxy)carbonylamino]-(3R)-(4-chlorophenyl)-butanoate]	0%	0%	0%	5%	4%	1%	4%	2%		100%									
CC(C)CC(=O)OCOC(=O)NC[C@H](CC(=O)[O-])c1ccc(Cl)cc1.[Na+] [(59), Sodium 4-[(3-Methylbutanoyloxymethoxy)carbonylamino]-(3R)-(4-chlorophenyl)-butanoate]	0%	1%	2%	2%		2%	1%	3%			103%	85%							
CC(C)C(=O)O[C@H](C)OC(=O)NC[C@H](CC(=O)[O-])c1ccc(Cl)cc1.[Na+] [(34), Sodium 4-{[(1S)-Isobutanoyloxyethoxy]carbonylamino}-(3R)-(4-chlorophenyl)-butanoate]	0%	0%	0%		2%	1%	3%	2%		100%	100%	100%	100%	100%	18%				
CC(C)C(=O)O[C@H](OC(=O)NC[C@H](CC(=O)[O-])c1ccc(Cl)cc1)C(C)C.[Na+] [(100), Sodium 4-{[(1R)-Isobutanoyloxyisobutoxy]carbonylamino}-(3R)-(4-chlorophenyl)-butanoate]	0%	0%	0%	9%	3%	3%	1%	7%											
CCCC(=O)O[C@H](OC(=O)NC[C@H](CC(=O)[O-])c1ccc(Cl)cc1)C(C)C.[Na+] [(90), Sodium 4-{[(1R)-Butanoyloxyisobutoxy]carbonylamino}-(3R)-(4-chlorophenyl)-butanoate]	0%	0%	1%	5%	2%	3%	1%	5%	9%	93%									
CCCC(=O)O[C@H](CCC)OC(=O)NC[C@H](CC(=O)[O-])c1ccc(Cl)cc1.[Na+] [(86), Sodium 4-{[(1S)-Butanoyloxybutoxy]carbonylamino}-(3R)-(4-chlorophenyl)-butanoate]	0%	1%	2%	1%		2%	2%	2%	4%										
CCCC(=O)OC(OC(=O)NC[C@H](CC(=O)[O-])c1ccc(Cl)cc1)C1CCCCC1.[Na+] (stereo partly drawn) [(85), Sodium 4-[(1-Butanoyloxy-1-cyclohexylmethoxy)carbonylamino]-(3R)-(4-chlorophenyl)-butanoate]	0%	0%	0%	82%	4%	2%	2%	4%						82%					
CC(C)(C)C(=O)OCOC(=O)NC[C@H](CC(=O)[O-])c1ccc(Cl)cc1.[Na+] [(20), Sodium 4-[(Pivaloyloxymethoxy)carbonylamino]-(3R)-(4-chlorophenyl)-butanoate]	0%	0%	0%		9%		1%	1%			100%			100%		100%	8%		
CC(C)C(=O)OCOC(=O)NC[C@H](CC(=O)[O-])c1ccc(Cl)cc1.[Na+] [(18), Sodium 4-[(Isobutanoyloxymethoxy)carbonylamino]-(3R)-(4-chlorophenyl)-butanoate]	0%	0%	0%	39%	27%	1%	2%	1%	2%	102%	95%	100%	100%	100%		105%	60%	61%	1.1
CC(=O)OC(C)OC(=O)NC[C@H](CC(=O)[O-])c1ccc(Cl)cc1.[Na+] (stereo partly drawn) [(30), Sodium 4-[(1-Acetoxyethoxy)carbonylamino]-(3R)-(4-chlorophenyl)-butanoate]	0%	1%	3%	58%	8%	1%	7%	24%		81%	87%	85%	87%	70%	9%	100%	42%	85%	3.8
